The values that follow come from US20090186915A1, “Compositions and methods for treatment of glioblastoma, gliosarcoma, NSCLC, and head and neck cancer” (Unibioscreen S. A., priority 2006, published 2009).

Where “and” joins values, the source holds several entries; their conditions need not be identical. Identical values can stand only once. Like-named read-outs stand apart in the source and are kept apart here.

Data set [1] deals with human A549 NSCLC orthotopic. To be noted: Taxol i.v. 20 mg/kg (1i × 3w). As for the experimental part: The purpose of the present study was to evaluate the in vivo efficacy of UNBS5162 on human A549 NSCLC orthotopic nude mice model. The endpoint in this experiment was the survival period of the tumor-bearing mice following treatment, as indicated.
The experiment comprised 6 groups of II mice, one group with mice receiving the vehicle only (Ct group) and 5 groups receiving the treatments as indicated in the Table 13. UNBS5162 was dosed i.v. at 10 mg/kg (in lactic acid vehicle). Taxol (Paclitaxel 6 mg/mL, Bristol-Myers Squibb) was dosed i.v. at 20 mg/kg.

The test system of data set [2] is human DU-145 orthotopic xenografts. The experiment in a line: Orthotopic DU-145 prostate cancer xenograft, survival. The format is in vivo, nu/nu mice. To be noted: DU-145 orthotopic model. As for the experimental part: (§1) Orthotopic xenografts were obtained by injecting 2.5×10^6 human PC-3 or DU-145 cells into the prostate of 6-week-old male nu/nu mice (n=9 animals per treatment group). All grafts were performed under anesthesia [saline/Rompun (Bayer, Leverkusen, Germany)/Imalgene (Merial, Lyons, France); 5:1:1 by volume]. The end point in these orthotopic experiments was the survival period of the tumor-bearing mice after the administration of UNBS3157, UNBS5162, or reference anticancer agents (taxol, mitoxantrone, and amonafide). However, for ethical reasons, animals were killed when 20% of body weight had been lost compared to that determined at the time of tumor grafting. All animals were weighed three times a week. […] In the case of UNBS5162 experiments in the PC-3 model, after the sacrifice of animals, tumors were removed from both drug-treated [10 mg/kg, intravenous (i.v.)] and vehicle-treated mice, fixed in buffered formalin, embedded in paraffin, and 5-μm-thick sections taken. These histologic slides were then stained with hematoxylin and eosin for blood vessel counts.

Data set [3] deals with human PC-3 orthotopic xenografts. The method, then:
as §1

Data set [4] deals with BxPC3. Briefly: MTT overall cell growth, BxPC3 cells. The conditions noted are these: Homo sapiens, BXPC-3, 72 h; Bx-PC-3; 3 days of culturing; mean of six determinations; read-out: IC50 (μM) In Vitro Growth Inhibition. Format: cell-based. The method, then: (§2) Tests were performed in order to rapidly, i.e. within 5 days, measure the effect of the compound of example 2 on the overall cell growth. The test measures the number of metabolically active living cells that are able to transform the yellow product 3-(4,5-dimethylthiazol-2-yl)-2,5-diphenyl tetrazolium bromide (herein referred as MTT) into the blue product formazan dye by mitochondrial reduction. The amount of formazan obtained at the end of the experiment, measured by means of a spectrophotometer, is directly proportional to the number of living cells. Optical density determination thus enables a quantitative measurement of the effect of the investigated compounds as compared to the control condition (untreated cells) and/or to other reference compounds.
(§3) Six human cancer cell lines described in table 1 were used in the following MTT tests. These cell lines cover six histological cancer types, being prostate, glioma, pancreas, colon, lung and breast cancers. Cells were allowed to grow in 96 well micro-wells with a flat bottom with an amount of 100 μl of cell suspension per well with 1,000 to 4,000 cells/well depending on the cell type used. Each cell line was seeded in a well known MEM 10% serum culture medium. […]
(§4) After 72 hours of incubation at 37° C. with (experimental conditions) or without (control condition) the compound to be tested, the medium was replaced by 100 μl MTT dissolved in RPMI (1640 without phenol red) at a concentration of 1 mg/ml. […] The micro-wells were shaken for 5 minutes and read on a spectrophotometer at wavelengths of 570 nm (maximum formazan absorbance) and 630 nm (back-ground noise).
(§5) For each experimental condition, the mean optical density was calculated, as well as the percentage of remaining living cells in comparison with the control.
(§6) The overall growth of human cancer cell lines was determined by means of the calorimetric MTT (3-[4,5-dimethylthiazol-2-yl]-diphenyl tetrazolium bromide; Sigma) assay, as detailed previously.

Data set [5] is described as follows: In vitro stability of UNBS3157 in saline/DMSO. The format is physicochemical. The conditions noted are these: physiological saline/DMSO (95:5 v/v), 37° C.
The test system of data set [6] is U-373MG. The experiment in a line: MTT overall cell growth, U-373MG cells. Format: cell-based. To be noted: Homo sapiens, 72 h; U373-MG; 3 days of culturing; mean of six determinations; read-out: IC50 (μM) In Vitro Growth Inhibition. The method, then: as §2, §3, §4, §5, §6
Data set [7] relates to HCT-15. The experiment in a line: MTT colorimetric assay, HCT-15 cells. Format: cell-based. The conditions noted are these: Homo sapiens, 72 h, 3 days of culturing, mean of six determinations, read-out: IC50 (μM) In Vitro Growth Inhibition. The method, then:
as §6

Data set [8] deals with PC3. Briefly: MTT overall cell growth, PC3 cells. Format: cell-based. The conditions noted are these: Homo sapiens, 72 h; PC-3; 3 days of culturing; mean of six determinations; read-out: IC50 (μM) In Vitro Growth Inhibition. The method, then:
as §2, with “compounds. […]” for “compounds.”
as §4
For each experimental condition, the mean optical density was calculated, as well as the percentage of remaining living cells in comparison with the control. […]

Data set [9] concerns Hs683. Briefly: MTT colorimetric assay, Hs683 cells. Format: cell-based. To be noted: Homo sapiens, Hs 683, 72 h, 3 days of culturing, mean of six determinations, read-out: IC50 (μM) In Vitro Growth Inhibition. As for the experimental part: as §6
Background: Formazan colour is commonly taken as a measure of viable cells.

In data set [10] the test system is A549. The experiment in a line: MTT colorimetric assay, A549 cells. The format is cell-based. To be noted: Homo sapiens, 72 h, 3 days of culturing, mean of six determinations, read-out: IC50 (μM) In Vitro Growth Inhibition. As for the experimental part: as §6
For data set [11], the system named is LoVo. The experiment in a line: MTT colorimetric assay, LoVo cells. Format: cell-based. The conditions noted are these: Homo sapiens, 72 h, 3 days of culturing, mean of six determinations, read-out: IC50 (μM) In Vitro Growth Inhibition. The method, then: as §6
Data set [12] concerns MCF-7. Briefly: MTT colorimetric assay, MCF-7 cells. Format: cell-based. To be noted: Homo sapiens, MCF7, 72 h, 3 days of culturing, mean of six determinations, read-out: IC50 (μM) In Vitro Growth Inhibition. As for the experimental part: as §6
Data set [13] deals with P-glycoprotein. The experiment in a line: P-gp ATPase activity (P-gp Drug interaction Assay Kit). Format: biochemical. As for the experimental part:
In order to test drug interaction with P-glucoprotein (herein-after referred as P-gp) we used an assay based on the study of modulation of ATPase activity from enriched P-gp membrane vesicle preparation (the following kit has been used: P-gp Drug interaction Assay Kit commercially available from SPI BIO France). P-gp ATPase activity was measured by a spectrophotometric method based on monitoring of ADP formation in the vesicle suspension medium. The basal ATPase activity was defined as the activity determined in the absence of any added drug. […]

Data set [14] relates to DU-145. Briefly: MTT colorimetric assay, DU-145 cells. The format is cell-based. To be noted: Homo sapiens, 72 h, 3 days of culturing, mean of six determinations, read-out: IC50 (μM) In Vitro Growth Inhibition. As for the experimental part: as §6
Data set [15] concerns nine human cancer cell lines. Briefly: MTT colorimetric assay, mean of nine cell lines. The conditions noted are these: mean over nine human cancer cell lines, read-out: mean antiproliferative activity IC50. Format: cell-based. The method, then: as §6
UNBS3157 and UNBS5162 display weak antiproliferative activity in vitro.

The subject of data set [16] is platelets, red and white blood cells. The experiment in a line: Compound-induced hematotoxicity and tolerance in mice. The conditions noted are these: five times a week for three weeks. Format: in vivo. As for the experimental part: We have determined the compound-induced potential hematotoxicity of the compound produced according to example 2 or example 7 on platelets, red and white blood cells in comparison of the effect of amonafide on platelets, red and white blood cells. The effect of amonafide was evaluated at 10 mg/kg and 20 mg/kg, by the intra-peritoneal administration to mice. The administration schedule was five times a week for three consecutive weeks. The effect of the compound produced according to example 2 or example 7 was evaluated at 20 mg/kg, by the intra-venous administration to mice. The administration schedule was three times a week (on Mondays, Wednesdays and Fridays) for five consecutive weeks. The animals were sacrificed 3 days after the last injection. There were 10 mice per group. FIG. 1 illustrates results of this assay for compound-induced hematotoxicity on platelets.

Data set [17] deals with PC-3. The experiment in a line: Senescence-associated β-galactosidase staining, PC-3. The conditions noted are these: 20 nM Adriamycin, 72 hours. Format: cell-based, human. As for the experimental part: After the indicated treatments, cells were washed in PBS, fixed for 3 to 5 minutes (at room temperature) in 2% formaldehyde/0.2% glutaraldehyde, washed and incubated at 37° C. (in the absence of CO2) with fresh senescence-associated β-Gal (SA-β-Gal) staining solution: 1 mg/ml of 5-bromo-4-chloro-3-indolyl […] (X-Gal; Sigma). Staining was evident within 2 to 4 hours and maximal after 12 to 16 hours. To detect lysosomal β-Gal, the citric acid/sodium phosphate used was pH 4.0. As described in the study of Dimri et al. [Proc Natl Acad Sci USA. 1995; 92:9363-9367.], after fixing and staining with X-Gal, the number of cells positive for the SA-β-Gal activity (intense blue staining) was then counted independently by two different individuals (on 400 cells/plate). Representative photographs (original magnifications, ×20) of stained cells from different experimental treatments were taken. As a positive control for SA-β-Gal expression, Adriamycin-treated cells were used.
Human PC-3 and DU-145 prostate cancer cells cultured in 0 or 10 μM UNBS5162 or 20 nM Adriamycin for 72 hours were evaluated by SA-β-Gal staining. The data clearly indicate that 10 μM [but not 1 μM or 5×1 μM] […] TMZ, as an inducer of autophagy but not of senescence, was used as a negative control.

Regarding `CC(=O)O[C@H]1C(=O)[C@@]2(C)[C@H]([C@H](OC(=O)c3ccccc3)[C@]3(O)C[C@H](OC(=O)[C@H](O)[C@@H](NC(=O)c4ccccc4)c4ccccc4)C(C)=C1C3(C)C)[C@]1(OC(C)=O)CO[C@@H]1C[C@@H]2O` [taxol, reference compound], in [1], the “T/C (%)” value came out at 128%. For the same compound, in data set [2] (20 mg/kg i.v.), the “% T/C” value is reported as 146%.
As to `O=C1c2c(O)ccc(O)c2C(=O)c2c(NCCNCCO)ccc(NCCNCCO)c21` [mitoxantrone, reference compound], the “therapeutic benefit (survival)” value in data set [3] (PC-3 orthotopic model, mitoxantrone i.v.) is “failed to contribute any therapeutic benefit”. For the same compound, in data set [3] (mouse, in vivo, iv, 2.5 mg/kg), the toxicity result was “highly toxic”.
One may read the IC50 as the concentration at which inhibition is half-maximal. As for `CN(C)CCN1C(=O)c2cccc3cc(NC(=O)NC(=O)C(Cl)(Cl)Cl)cc(c23)C1=O` [UNBS3157, 2,2,2-trichloro-N-[({2-[2-(dimethylamino)ethyl]-1,3-dioxo-2,3-dihydro-1H-benzo[de]isoquinolin-5-yl}amino)carbonyl]acetamide], the IC50 in data set [4] was found to be 17.2 µM; in [6], 3.9 µM; in data set [7], 29.3 µM; in data set [8], 15.1 µM; in [9] it was 9.9 µM; in [10] it was 8.7 µM. The 50% inhibitory concentration (IC50) in data set [11] was 26.4 µM; in data set [12], 44.3 µM; in [14] it was 23 µM; in data set [15], 19.8 µM. The “production of amonafide on hydrolysis” value in [5] (22-hour incubation) is “without production of amonafide”. In data set [5] (in 270 minutes, 10^−4 M), the “hydrolyzed to UNBS5162” value came to 90%. The “modulation of Pgp ATPase activity” value in data set [13] (100 μM (data not shown)) is reported as “do not affect Pgp ATPase activity”. For the same compound, the “% T/C” value in [3] (PC-3 orthotopic model, 40 mg/kg p.o.) was determined as 100%; in data set [3] (PC-3 orthotopic model, 160 mg/kg orally), 151%; in [2] (20 mg/kg i.v.), 143%; in data set [2] (40 mg/kg orally), 164%.
Regarding `CN(C)CCN1C(=O)c2cccc3cc(N)cc(c23)C1=O` [amonafide], in data set [13] (50 μM), the “modulation of basal P-gp ATPase activity” value is on record as “significantly alter the ATPase activity”. Besides, the “% T/C” value in [3] (PC-3 orthotopic model, 40 mg/kg p.o., 40 mg/kg) was 103% and 107%; in [2] (40 mg/kg orally) it was 138%. In [2] (20 mg/kg i.v. and lower doses), the “activity (survival)” value was “inactive”. For the same compound, the “tolerance of chronic administrations” value in data set [16] (10 mg/kg intra-peritoneal) is on record as “tolerated 15 chronic administrations”; in data set [16] (20 mg/kg intra-peritoneal) it was “all animals died before receiving the complete set of 15 administrations”.
Regarding `COc1cccc2c1C(=O)c1c(O)c3c(c(O)c1C2=O)C[C@@](O)(C(=O)CO)C[C@@H]3O[C@H]1C[C@H](N)[C@H](O)[C@H](C)O1` [Adriamycin, doxorubicin, reference compound], the SA-β-Gal expression result in data set [17] is “Limited SA-β-Gal expression”.
